Assay results as given in patent US8476264B2, “N-(3-(2-amino-6,6-difluoro-4,4A,5,6,7,7A-hexahydro-cyclopenta[E][1,3]oxazin-4-yl)-phenylamides as BACE1 inhibitors” (Hoffmann-La Roche Inc., priority 2011, dated 2013).

Columns and labels:
[1] = Detection of glutathione conjugates; format: in vitro ADME, human; set-up: key: NF: in vitro no significant adduct formation relative to control; details: in vitro, relative to control
From the text: Detection of Glutathione Conjugates
The assay conditions for the detection of glutathione conjugates follow the procedure described by C. M. Dieckhaus et al.

[2] = biological target: T1, P-gp (P-glycoprotein, human MDR1) (Homo sapiens, UniProt P08183); assay: P-gp (P-glycoprotein) assay, bidirectional transcellular transport in LLC-PK1 and L-MDR1 cells; format: in vitro ADME; details: ER = PappBA/PappAB, read-out: P-gp human, efflux ratio: substrate category
T1 construct: host or cells: LLC-PK1 (porcine kidney epithelial) cells, L-MDR1
Description: P-gp (P-glycoprotein) Assay Cell Lines Used for Transport Experiments
The LLC-PK1 cell line (ATCC #CL-101) is a porcine kidney epithelial cell line. The MDR1 (Human multidrug resistance protein 1) transfected cell lines were obtained from Dr. A. Schinkel, The Netherlands Cancer Institute (Amsterdam, The Netherlands). All cell lines were cultured on permeable inserts (96-insert plates Millipore, 0.11 cm^2 area, pore size 0.4 μm) at 0.73*10^6 cells/ml. Transport measurements were performed at day 4 after seeding. Tightness of the cell monolayer was controlled via the permeability of the extracellular marker lucifer yellow (10 μM).
In Vitro Transport Experiments
Bidirectional transcellular transport using LLC-PK1 and L-MDR1 LLC-PK1 cells exogenously expressing the human MDR1)
The experiments were performed on a TECAN automated liquid handling system. Briefly, medium was removed from all compartments and the medium of receiver side was replaced with culture medium. The trans-cellular transport measurements were initiated by adding the substrate together with extracellular marker lucifer yellow to the donor side. Inhibitors were added to both sides (1 μM elacridar). Transport experiments were performed both in the basolateral-to-apical and apical-to-basolateral directions with 3 wells each. The plates were incubated at 37° C. and 5% CO2 in a Liconic incubator. Samples were taken from the donor and the opposite (acceptor) side after 2 hours incubation. Concentrations of substrate in both compartments were determined by scintillation counting (digoxin) or by LC-MS/MS. The extracellular marker (lucifer yellow) was quantified using a spectrafluor plus reader at 430/535 nm (Ex/Em). In each experiment 3 different inserts were used for each condition and a mean was calculated.
Bidirectional transcellular transport using LLC-PK1 and L-MDR1 cells
For the transcellular transport, the following equation was used for data evaluation: […]
Where Papp, A, C0, and dQ/dt represent the apparent permeability, the filter surface area, the initial concentration, and the amount transported per time period, respectively.
Transport efflux ratios (ER) were calculated as follows: […]
Where PappBA is the permeability value in the basolateral-to-apical direction, and PappAB the permeability value in the apical-to-basolateral direction. Papp were not corrected for flux of the extracellular marker lucifer yellow, which was used to assess the quality of the cell monolayers.

[3] = biological target: T2, recombinant human cathepsin E (Homo sapiens, UniProt P14091); assay: Cathepsin E fluorescent substrate kinetic assay; format: biochemical; details: pH 4.5, substrate MR121-[…]
T2 construct: purchased R&D Systems
T2 sequence (P14091 54-396): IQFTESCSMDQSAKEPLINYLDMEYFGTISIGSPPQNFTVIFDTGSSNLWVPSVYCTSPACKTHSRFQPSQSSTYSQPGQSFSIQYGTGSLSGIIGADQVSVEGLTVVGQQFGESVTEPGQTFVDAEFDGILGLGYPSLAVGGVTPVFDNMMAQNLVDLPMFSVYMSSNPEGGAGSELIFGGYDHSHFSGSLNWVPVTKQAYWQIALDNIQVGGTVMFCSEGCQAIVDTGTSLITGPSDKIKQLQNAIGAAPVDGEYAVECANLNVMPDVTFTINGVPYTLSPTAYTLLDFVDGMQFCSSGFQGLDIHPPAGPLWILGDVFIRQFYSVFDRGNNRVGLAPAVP
From the text: Cathepsin D and Cathepsin E Fluorescent Substrate Kinetic Assays
The MR121 fluorescence assays described below are based on the fact that MR121 forms a non-fluorescent ground state complex with tryptophan. In solution this formation occurs at millimolar concentrations of tryptophan. The mechanism can be used to design a generic biochemical assay for proteases. A substrate peptide is labeled at the N-terminus with tryptophan and at the C-terminus with the fluorophore MR121 (for cathepsin D the 10 amino acid peptide […]-MR121 was used; for cathepsin E, MR121-[…] was used). In absence of protease activity, the substrates remain intact and the MR121 fluorescence is reduced by the high local Trp-concentration. If the substrates are cleaved by the enzymes the MR121 fluorescence is recovered.
The fluorescent substrate cathepsin D and cathepsin E kinetic assays were performed at room temperature in 384-well microtiter plates (black with clear flat bottom, non binding surface plates from Corning) in a final volume of 51 μl. The test compounds were serially diluted in DMSO (15 concentrations, ⅓ dilution steps) and 1 μl of diluted compounds were mixed for 10 min with 40 μl of cathepsin D (from human liver, Calbiochem) diluted in assay buffer (100 mM sodium acetate, 0.05% BSA, pH 5.5; final concentration: 200 nM) or with 40 μl of recombinant human cathepsin E (R&D Systems) diluted in assay buffer (100 mM sodium acetate, 0.05% BSA, pH 4.5; final concentration: 0.01 nM). After addition of 10 μl of the cathepsin D substrate […]-MR121 diluted in cathepsin D assay buffer (final concentration: 300 nM) or […] cathepsin E substrate MR121-[…] diluted in cathepsin E assay buffer (final concentration: 300 nM), the plates were strongly shaken for 2 minutes. The enzymatic reaction was followed in a plate: vision reader (Perkin Elmer) (excitation wavelength: 630 nm; emission: 695 nm) for at least 30 minutes in a kinetic measurement detecting an increase of MR121 fluorescence during the reaction time. The slope in the linear range of the kinetic was calculated and the IC50 of the test compounds were determined using a four parameter equation for curve fitting.

T1 sequence (P08183 whole entry): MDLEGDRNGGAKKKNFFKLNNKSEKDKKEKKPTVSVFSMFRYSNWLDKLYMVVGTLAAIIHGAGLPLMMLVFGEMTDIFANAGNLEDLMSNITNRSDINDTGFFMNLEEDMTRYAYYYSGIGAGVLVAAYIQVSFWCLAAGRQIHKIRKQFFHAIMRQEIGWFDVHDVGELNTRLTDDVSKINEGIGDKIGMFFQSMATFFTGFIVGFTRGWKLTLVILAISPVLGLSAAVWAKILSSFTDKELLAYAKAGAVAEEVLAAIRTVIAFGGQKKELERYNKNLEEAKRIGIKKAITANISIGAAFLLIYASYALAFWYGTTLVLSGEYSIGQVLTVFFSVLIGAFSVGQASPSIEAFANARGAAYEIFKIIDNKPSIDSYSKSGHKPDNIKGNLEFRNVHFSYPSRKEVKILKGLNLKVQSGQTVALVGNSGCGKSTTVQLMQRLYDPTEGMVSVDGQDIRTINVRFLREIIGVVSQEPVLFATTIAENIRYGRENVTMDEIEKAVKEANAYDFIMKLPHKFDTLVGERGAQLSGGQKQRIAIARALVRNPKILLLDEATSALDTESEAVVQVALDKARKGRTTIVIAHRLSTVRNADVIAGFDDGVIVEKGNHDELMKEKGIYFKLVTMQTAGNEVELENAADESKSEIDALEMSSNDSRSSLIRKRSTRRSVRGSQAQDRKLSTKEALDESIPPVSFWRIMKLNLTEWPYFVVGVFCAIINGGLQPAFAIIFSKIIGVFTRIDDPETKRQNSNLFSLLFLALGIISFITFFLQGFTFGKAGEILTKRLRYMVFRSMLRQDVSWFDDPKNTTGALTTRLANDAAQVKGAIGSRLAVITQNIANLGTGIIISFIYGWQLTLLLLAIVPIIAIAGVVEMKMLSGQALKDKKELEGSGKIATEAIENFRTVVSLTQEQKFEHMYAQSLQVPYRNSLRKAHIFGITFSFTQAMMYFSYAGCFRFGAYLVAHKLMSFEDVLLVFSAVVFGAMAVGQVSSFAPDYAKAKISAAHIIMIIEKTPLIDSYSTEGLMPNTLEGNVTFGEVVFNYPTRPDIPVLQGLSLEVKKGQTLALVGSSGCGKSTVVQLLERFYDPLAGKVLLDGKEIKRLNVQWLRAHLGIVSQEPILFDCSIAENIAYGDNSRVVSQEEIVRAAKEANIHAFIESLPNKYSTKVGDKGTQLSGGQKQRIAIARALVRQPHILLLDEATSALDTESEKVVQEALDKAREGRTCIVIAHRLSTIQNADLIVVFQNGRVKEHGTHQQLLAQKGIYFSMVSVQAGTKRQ

COc1cnc(C(=O)Nc2ccc(F)c([C@@]3(C(F)F)N=C(N)O[C@@H]4CC(F)(F)C[C@@H]43)c2)cn1 [Example 42, 5-Methoxy-pyrazine-2-carboxylic acid [(S)-3-((1R,2R)-2-amino-4-difluoromethyl-6,6-difluoro-4,4a,5,6,7,7a-hexahydro-cyclopenta[e][1,3]oxazin-4-yl)-4-fluoro-phenyl]-amide]
GSH human (glutathione adduct formation) [1]: NF | efflux ratio at 2 h [2]: < 3 | IC50 [3]: > 200 µM

NC1=N[C@](CF)(c2cc(NC(=O)c3cnc(C(F)F)cn3)ccc2F)[C@H]2CC(F)(F)C[C@H]2O1 [Example 24, 5-Difluoromethyl-pyrazine-2-carboxylic acid [(S)-3-((1R,2R)-2-amino-6,6-difluoro-4-fluoromethyl-4,4a,5,6,7,7a-hexahydro-cyclopenta[e][1,3]oxazin-4-yl)-4-fluoro-phenyl]-amide]
GSH human (glutathione adduct formation) [1]: NF | efflux ratio at 2 h [2]: < 3 | IC50 [3]: > 200 µM

NC1=N[C@](CF)(c2cc(NC(=O)c3ccc(F)cn3)ccc2F)[C@H]2CC(F)(F)C[C@H]2O1 [Example 7, 5-Fluoro-pyridine-2-carboxylic acid [(S)-3-((1R,2R)-2-amino-6,6-difluoro-4-fluoromethyl-4,4a,5,6,7,7a-hexahydro-cyclopenta[e][1,3]oxazin-4-yl)-4-fluoro-phenyl]-amide]
GSH human (glutathione adduct formation) [1]: NF | efflux ratio at 2 h [2]: < 3 | IC50 [3]: 149 µM

N#Cc1ccc(C(=O)Nc2ccc(F)c([C@@]3(CF)N=C(N)O[C@@H]4CC(F)(F)C[C@@H]43)c2)nc1 [Example 3, 5-Cyano-pyridine-2-carboxylic acid [(S)-3-((1R,2R)-2-amino-6,6-difluoro-4-fluoromethyl-4,4a,5,6,7,7a-hexahydro-cyclopenta[e][1,3]oxazin-4-yl)-4-fluoro-phenyl]-amide]
GSH human (glutathione adduct formation) [1]: NF | efflux ratio at 2 h [2]: < 3 | IC50 [3]: > 200 µM

N#Cc1ccc(C(=O)Nc2ccc(F)c([C@@]3(C(F)F)N=C(N)O[C@@H]4CC(F)(F)C[C@@H]43)c2)nc1 [Example 36, 5-Cyano-pyridine-2-carboxylic acid [(S)-3-((1R,2R)-2-amino-4-difluoromethyl-6,6-difluoro-4,4a,5,6,7,7a-hexahydro-cyclopenta[e][1,3]oxazin-4-yl)-4-fluoro-phenyl]-amide]
GSH human (glutathione adduct formation) [1]: NF | efflux ratio at 2 h [2]: < 3 | IC50 [3]: > 200 µM
